Reference: patent US20100035871A1, “BENZOXAZINE DERIVATIVES AND USES THEREOF” (priority 2006, published 2010)
Counter-ions that a name gives are not always drawn.

Biological target: T1, human 5-HT2C receptor (Homo sapiens, UniProt P28335)
T1 construct: expressed in transfected cells; host or cells: CHO (Chinese Hamster Ovary) cells; membrane preparation
T1 sequence (P28335 33-458): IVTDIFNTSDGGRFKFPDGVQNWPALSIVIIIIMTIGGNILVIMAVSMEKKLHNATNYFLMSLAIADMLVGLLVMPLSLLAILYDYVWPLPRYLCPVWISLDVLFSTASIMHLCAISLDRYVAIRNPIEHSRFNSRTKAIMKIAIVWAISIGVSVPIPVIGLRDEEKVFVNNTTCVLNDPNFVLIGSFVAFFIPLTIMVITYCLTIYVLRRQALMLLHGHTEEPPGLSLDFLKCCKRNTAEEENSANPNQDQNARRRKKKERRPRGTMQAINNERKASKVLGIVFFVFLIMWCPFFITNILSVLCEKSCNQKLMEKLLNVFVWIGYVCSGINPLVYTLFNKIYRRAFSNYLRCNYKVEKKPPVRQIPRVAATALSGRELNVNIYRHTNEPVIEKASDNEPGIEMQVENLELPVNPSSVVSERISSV
Test: 5-HT2C receptor binding, [125I]DOI displacement, membranes of transfected CHO cells
Conditions: @1 μM

Compound	5-HT2C Binding, % @1 μM
COc1ccc(-c2cccc3c2O[C@H](CN)CN3)cc1 [Example 45, 1-[(2R)-8-(4-methoxyphenyl)-3,4-dihydro-2H-1,4-benzoxazin-2-yl]methanamine]	18% @1 μM

Same assay, conditions: read-out: 5-HT2C Binding Ki avg

Compound	Ki
NCC1COc2cc(Cl)cc(-c3ccc(Cl)cc3C(F)(F)F)c2N1 (racemic) [Example 37, 1-{7-chloro-5-[4-chloro-2-(trifluoromethyl)phenyl]-3,4-dihydro-2H-1,4-benzoxazin-3-yl}methanamine]	166 nM
COc1ccc(-c2cc(Cl)cc3c2NC(CN)CO3)cc1 (racemic) [Example 26, 1-[7-Chloro-5-(4-methoxyphenyl)-3,4-dihydro-2H-1,4-benzoxazin-3-yl]methanamine]	158 nM
NCC1COc2cc(Cl)cc(-c3ccccc3F)c2N1 (racemic) [Example 33, 1-[7-chloro-5-(2-fluorophenyl)-3,4-dihydro-2H-1,4-benzoxazin-3-yl]methanamine]	152 nM
Cc1ccccc1-c1cc(F)cc2c1NC(CN)CO2 (racemic) [Example 58, 1-[7-fluoro-5-(2-methylphenyl)-3,4-dihydro-2H-1,4-benzoxazin-3-yl]methanamine]	155 nM
COc1ccccc1-c1cc(F)cc2c1NC(CN)CO2 (racemic) [Example 64, 1-[7-fluoro-5-(2-methoxyphenyl)-3,4-dihydro-2H-1,4-benzoxazin-3-yl]methanamine]	291 nM
CN1CC(CN)Oc2c(-c3ccccc3)cccc21 (racemic) [Example 9, 1-(4-Methyl-8-phenyl-3,4-dihydro-2H-1,4-benzoxazin-2-yl)methanamine]	161 nM
CCN1CC(CN)Oc2c(-c3ccccc3Cl)cccc21 (racemic) [Example 19, 1-[8-(2-Chlorophenyl)-4-ethyl-3,4-dihydro-2H-1,4-benzoxazin-2-yl]methanamine]	80.5 nM
CN1CC(CN)Oc2c(-c3cccc(Cl)c3)cccc21 (racemic) [Example 66, 1-[8-(3-chlorophenyl)-4-methyl-3,4-dihydro-2H-1,4-benzoxazin-2-yl]methanamine]	258 nM
Cc1ccccc1-c1cc(Cl)cc2c1NC(CN)CO2 (racemic) [Example 30, 1-[7-chloro-5-(2-methylphenyl)-3,4-dihydro-2H-1,4-benzoxazin-3-yl]methanamine]	155 nM
NCC1COc2cc(F)cc(-c3ccccc3F)c2N1 (racemic) [Example 62, 1-[7-fluoro-5-(2-fluorophenyl)-3,4-dihydro-2H-1,4-benzoxazin-3-yl]methanamine]	794 nM
Cc1cc(Cl)ccc1-c1cc(F)cc2c1NC(CN)CO2 (racemic) [Example 63, 1-[5-(4-chloro-2-methylphenyl)-7-fluoro-3,4-dihydro-2H-1,4-benzoxazin-3-yl]methanamine]	227 nM
NCC1COc2cc(F)cc(-c3cccc(Cl)c3)c2N1 (racemic) [Example 65, 1-[5-(3-chlorophenyl)-7-fluoro-3,4-dihydro-2H-1,4-benzoxazin-3-yl]methanamine]	497 nM
Cc1cc(Cl)ccc1-c1cccc2c1O[C@H](CN)CN2 [Example 42, 1-[(2R)-8-(4-chloro-2-methylphenyl)-3,4-dihydro-2H-1,4-benzoxazin-2-yl]methanamine]	529 nM
NCC1COc2cc(Cl)cc(-c3ccccc3C(F)(F)F)c2N1 (racemic) [Example 25, 1-{7-Chloro-5-[2-(trifluoromethyl)phenyl]-3,4-dihydro-2H-1,4-benzoxazin-3-yl}methanamine]	68.2 nM
CCCN1CC(CN)Oc2c(-c3ccccc3Cl)cccc21 (racemic) [Example 21, 1-[8-(2-Chlorophenyl)-4-propyl-3,4-dihydro-2H-1,4-benzoxazin-2-yl]methanamine]	64 nM
NC[C@@H]1CNc2cccc(-c3ccccc3F)c2O1 [Example 43, 1-[(2R)-8-(2-fluorophenyl)-3,4-dihydro-2H-1,4-benzoxazin-2-yl]methanamine]	96.7 nM
COc1ccccc1-c1cc(Cl)cc2c1NC(CN)CO2 (racemic) [Example 34, 1-[7-chloro-5-(2-methoxyphenyl)-3,4-dihydro-2H-1,4-benzoxazin-3-yl]methanamine]	749 nM
Cc1ccc(-c2cc(F)cc3c2NC(CN)CO3)c(C(F)(F)F)c1 (racemic) [Example 60, 1-{7-fluoro-5-[4-methyl-2-(trifluoromethyl)phenyl]-3,4-dihydro-2H-1,4-benzoxazin-3-yl}methanamine]	65.1 nM

Same assay, conditions: reference compounds; value (95% confidence interval); [125I]DOI binding; read-out: Ki

Compound	Ki
CSc1ccc2c(c1)C(N1CCN(C)CC1)Cc1ccccc1S2 (stereo not shown) [Methiothepin, reference compound]	4.6 nM

Tested on: not given
Test: not given
Conditions: not given

Compound	melting point
NCC1CNc2cccc(-c3ccc(Cl)cc3C(F)(F)F)c2O1 (racemic) (as salt: hydrochloride) [Example 18, 1-{8-[4-Chloro-2-(trifluoromethyl)phenyl]-3,4-dihydro-2H-1,4-benzoxazin-2-yl}methanamine]	205 to 207 °C
NCC1COc2cc(Cl)cc(-c3ccc(Cl)cc3C(F)(F)F)c2N1 (racemic) (as salt: hydrochloride) [Example 37, 1-{7-chloro-5-[4-chloro-2-(trifluoromethyl)phenyl]-3,4-dihydro-2H-1,4-benzoxazin-3-yl}methanamine]	95 °C (dec.)
Cc1ccccc1-c1cccc2c1OC(CN)CN2C (racemic) (as salt: hydrochloride) [Example 8, 1-[4-Methyl-8-(2-methylphenyl)-3,4-dihydro-2H-1,4-benzoxazin-2-yl]methanamine]	92 °C (dec.)
Cc1cc(Cl)ccc1-c1cccc2c1O[C@H](CN)CN2 (as salt: hydrochloride) [Example 42, 1-[(2R)-8-(4-chloro-2-methylphenyl)-3,4-dihydro-2H-1,4-benzoxazin-2-yl]methanamine]	195 °C (dec.)
CN1CC(CN)Oc2c(-c3ccc(Cl)cc3Cl)cccc21 (racemic) (as salt: hydrochloride) [Example 3, 1-[8-(2,4-Dichlorophenyl)-4-methyl-3,4-dihydro-2H-1,4-benzoxazin-2-yl]methanamine]	90 °C (dec.)
NC[C@@H]1CNc2cccc(-c3ccc(Cl)cc3Cl)c2O1 (as salt: hydrochloride) [Example 54, 1-[(2R)-8-(2,4-dichlorophenyl)-3,4-dihydro-2H-1,4-benzoxazin-2-yl]methanamine]	163 °C (dec.)
NCC1CNc2cc(F)cc(-c3c(Cl)cccc3Cl)c2O1 (racemic) (as salt: hydrochloride) [Example 10, 1-[8-(2,6-Dichlorophenyl)-6-fluoro-3,4-dihydro-2H-1,4-benzoxazin-2-yl]methanamine]	135 to 136 °C
CN1CC(CN)Oc2c(-c3ccccc3C(F)(F)F)cccc21 (racemic) (as salt: hydrochloride) [Example 4, 1-{4-Methyl-8-[2-(trifluoromethyl)phenyl]-3,4-dihydro-2H-1,4-benzoxazin-2-yl}methanamine]	90 °C (dec.)
NCC1CNc2cccc(-c3ccc(Cl)cc3Cl)c2O1 (racemic) (as salt: hydrochloride) [Example 15, 1-[8-(2,4-Dichlorophenyl)-3,4-dihydro-2H-1,4-benzoxazin-2-yl]methanamine]	158 to 161 °C
NC[C@@H]1CNc2cccc(-c3ccc(Cl)cc3C(F)(F)F)c2O1 (as salt: hydrochloride) [Example 67, 1-{(2R)-8-[4-chloro-2-(trifluoromethyl)phenyl]-3,4-dihydro-2H-1,4-benzoxazin-2-yl}methanamine]	203 °C (dec.)
NCC1COc2cc(Cl)cc(-c3ccccc3)c2N1 (racemic) (as salt: hydrochloride) [Example 29, 1-(7-chloro-5-phenyl-3,4-dihydro-2H-1,4-benzoxazin-3-yl)methanamine]	92 °C (dec.)
Cc1ccccc1-c1cc(F)cc2c1NC(CN)CO2 (racemic) (as salt: hydrochloride) [Example 58, 1-[7-fluoro-5-(2-methylphenyl)-3,4-dihydro-2H-1,4-benzoxazin-3-yl]methanamine]	78 °C (dec.)
Cc1cc(Cl)ccc1-c1cccc2c1O[C@@H](CN)CN2 (as salt: hydrochloride) [Example 48, 1-[(2S)-8-(4-chloro-2-methylphenyl)-3,4-dihydro-2H-1,4-benzoxazin-2-yl]methanamine]	196 °C (dec.)
NCC1COc2cc(Cl)cc(-c3ccccc3Cl)c2N1 (racemic) (as salt: hydrochloride) [Example 36, 1-[7-chloro-5-(2-chlorophenyl)-3,4-dihydro-2H-1,4-benzoxazin-3-yl]methanamine]	108 °C (dec.)
COc1ccc(-c2cccc3c2O[C@@H](CN)CN3)c(Cl)c1 (as salt: hydrochloride) [Example 52, 1-[(2S)-8-(2-chloro-4-methoxyphenyl)-3,4-dihydro-2H-1,4-benzoxazin-2-yl]methanamine]	215 °C (dec.)
NCC1CN(CC2CC2)c2cccc(-c3ccccc3Cl)c2O1 (racemic) (as salt: hydrochloride) [Example 12, 1-[8-(2-Chlorophenyl)-4-(cyclopropylmethyl)-3,4-dihydro-2H-1,4-benzoxazin-2-yl]methanamine]	90 °C (dec.)
Cc1ccc(-c2cc(Cl)cc3c2NC(CN)CO3)c(C(F)(F)F)c1 (racemic) (as salt: hydrochloride) [Example 31, 1-{7-chloro-5-[4-methyl-2-(trifluoromethyl)phenyl]-3,4-dihydro-2H-1,4-benzoxazin-3-yl}methanamine]	98 °C (dec.)
